Assay results from patent publication US10561658B2, “Thieno- and pyrrolopyrimidine analogues as anticancer agents and methods of use thereof” (UNIVERSITY OF MARYLAND, BALTIMORE COUNTY, priority 2015, dated 2020).

What was measured:
[1] = test system: L1210, CEM and HeLa cells; assay: Cell proliferation assays, comparison across cancer cell lines; type: cell-based; conditions: C7 iodine vs compound 19
Experimental: (§1) Cell proliferation assays for several of the compounds were performed on L1210, a mouse lymphocytic leukemia cell line; CCRF-CEM [39] an acute lymphoblastic leukemia cell line; and HeLa, a human cancer cell line derived from a human cervical adenocarcinoma. Murine Leukemia L1210, human lymphocytic CEM and human cervix carcinoma HeLa cells were obtained from the American Type Culture Collection (ATCC) (Rockville, Md.). All assays were performed in 96-well microtiter plates. To each well were added (5-7.5)×10^4 tumor cells and a given amount of the test compound. The cells were allowed to proliferate for 48 h (murine leukemia L1210 cells) or 72 h (human lymphocytic CEM and human cervix carcinoma HeLa cells) at 37° C. in a humidified CO2-controlled atmosphere. At the end of the incubation period, the cells were counted in a Coulter counter. The IC50 (50% inhibitory concentration) was defined as the concentration of the compound that inhibited cell proliferation by 50%. […] Presence of C7 iodine on the 2,4-dichloro pyrrolo[3,2-d] (compound 20) increases the anticancer activity by a factor of 5 when compared to compound 19. […] This alludes to a) importance of C7-I towards activity against cancer cell lines for the 2,4-O-benzylated analogues (15 and 16).

MDA-MB-231 cells [2] = assay: Cell cycle distribution (propidium iodide, flow cytometry), MDA-MB-231; type: cell-based, human; conditions: 1.75 μM
Experimental: Cell cycle distributions of MDA-MB-231 cells after 48 hours in the presence of equitoxic (IC80) doses of (a) compound 1 (15 μM) or (b) compound 2 (8 μM) analyzed by flow cytometry of fixed, propidium iodide-stained cells and compared to vehicle controls (DMSO). A minimum of 3000 cells were analyzed per cell population. Each bar represents the mean±SD across 4 independent cell samples.
(§2) Cell-cycle and apoptosis studies were conducted in MDA-MB-231 cells. Cell-cycle analysis of compound 19 at 15 μM concentration lead to arrest of 60% cells in G2/M stage. Similarly, at 1.75 μM concentration, compound 20 arrested 30% of cells in G2/M stage. […] To evaluate the possible mechanism for arrest of cell proliferation, cell-cycle distribution was measured using propidium iodide staining and flow cytometry. […] There are several possibilities that could account for this, including: (i) that cell lysis occurs rapidly following induction of apoptosis, preventing significant accumulation of annexin V-positive bodies, or (ii) that a distinct cell death pathway is triggered by compound 19.
Human metastatic breast cancer MDA-MB-231 cells were obtained from the American Type Culture Collection (ATCC) (Rockville, Md.) and maintained in Dulbecco's Modified Eagle's Medium (DMEM) containing 10% fetal bovine serum (FBS) without antibiotics at 37° C. in a humidified, CO2-controlled incubator. The cytotoxicity of compounds 1 and 2 was assessed by reduction of 3-(4, 5-dimethylthiazol-2-yl)-2,5-diphenyltetrazolium bromide (MTT). MDA-MB-231 cells were seeded in 96-well plates at 5×10^3 cells per well and treated with a range of drug concentrations. After 48 hours, cell viability was measured using the MTT Cell Proliferation Assay kit (ATCC) according to the manufacturer's instructions. Percent cell viability was plotted as a function of drug concentrations and analyzed using a sigmoidal dose response function with PRISM v3.03 software (GraphPad) to resolve drug concentrations yielding 50% cell death (IC50). The cell cycle distributions of MDA-MB-231 cells treated with compounds 1 or 2 were analyzed using propidium iodide staining and flow cytometry. 2×10^6 cells were seeded in 100 mm dishes and treated with compounds 1 or 2 at the IC80 values determined by cell viability assays or an equivalent volume of DMSO. 48 h following treatment the cells were collected, fixed, and stained with propidium iodide (Sigma Aldrich) immediately before analysis by flow cytometry.
As shown in Example 11, compounds 1 and 2 both induced apoptosis but involving a mechanism independent of cell cycle arrest. To test whether the toxicity of these agents for MDA-MB-231 cells proceeded via a similar pathway, their effects were monitored on cell cycle distributions using propidium iodide staining and flow cytometry. […]

[3] = test system: human lymphocytic CEM cells; assay: Cell proliferation assay, CEM; type: cell-based; conditions: CCRF-CEM, 72 h proliferation, Coulter counter
Experimental: as §1

[4] = test system: human cervix carcinoma HeLa cells; assay: Cell proliferation assay, HeLa; type: cell-based; conditions: 72 h proliferation, Coulter counter
Experimental: as §1

[5] = test system: murine leukemia L1210 cells; assay: Cell proliferation assay, L1210; type: cell-based; conditions: Mus musculus, 48 h proliferation, Coulter counter, read-out: IC50 L1210
Experimental: as §1

MDA-MB-231 cells [6] = assay: Apoptosis (annexin V), MDA-MB-231; type: cell-based, human; conditions: MDA-MB-231, tested concentration
Experimental: as §2

[7] = test system: Candida albicans ATCC 10231; assay: Antifungal growth inhibition and MIC95, C. albicans; type: cell-based; conditions: ATCC10231; Candida albicans ATCC 10231, 100 μM
Experimental: (§3) Evaluation of antimicrobial activity in vitro. Compounds were tested against the following panel of bacteria and fungi purchased from the American Type Culture Collection (ATCC). Briefly, bacteria were grown to mid-log phase, diluted with fresh medium to an optical density at 600 nm (OD600) of 0.030-0.060 and then diluted again 1:10. This suspension (195 μL) was added to wells in a 96 well microtiter plate (Sarstedt) and 5 μL of compound dissolved in DMSO was added to give a final concentration of 100-0.1 μM at 2.5% DMSO by volume. A DMSO negative control and standard antibiotic positive controls were included in each plate. All compounds were tested in triplicate for each concentration. Plates were sealed with parafilm, placed in a Ziploc bag to prevent evaporation, and incubated at 30° C. (fungi) or 37° C. (bacteria) for 16-20 hours (48 hours for C. neoformans). The OD600 values for each well were determined with a plate reader (Biotek, EL800) and the data were standardized to the DMSO control wells after subtracting the background from blank medium. Initial single concentrations were tested at 100 μM and active compounds were further tested with at least nine concentrations for a full dose response. Dose response curves were generated using GraphPad Prism 5 software and used to determine the MIC95 concentrations (minimal concentration that inhibits 95% of growth). Compounds 1, 2, 5 and 19 were screened for growth inhibition activity against a panel of bacteria and fungi at a concentration of 100 as shown in Table 2. Compound 5 was included to test the importance of the C4-Cl substituent for activity across a broader range of biological systems.
(§4) Compounds 1 and 2 were further tested against the susceptible fungal strains to determine the MIC95 values.

[8] = test system: Bacillus subtilis ATCC 6633; assay: Antimicrobial growth inhibition, B. subtilis; type: cell-based; conditions: ATCC6633; Bacillus subtilis ATCC 6633, 100 μM
Experimental: as §3

[9] = test system: Escherichia coli ATCC 25922; assay: Antimicrobial growth inhibition, E. coli; type: cell-based; conditions: ATCC25922; Escherichia coli ATCC 25922, 100 μM
Experimental: as §3

Cryptococcus neoformans = assay: Antifungal growth inhibition and MIC95, C. neoformans strains; type: cell-based
Experimental: as §3, §4

[10] = test system: Staphylococcus aureus subsp. aureus (MRSA) ATCC 43300; assay: Antimicrobial growth inhibition, S. aureus (MRSA); type: cell-based; conditions: Staphylococcus aureus (MRSA) ATCC 43300, 100 μM
Experimental: as §3

| Compound | increase of anticancer activity by a factor, compared to compound 19 [1] | cells arrested in G2/M stage (MDA-MB-231 cells [2]) [%] | IC50 [3] [µM] | IC50 [4] [µM] | IC50 [5] [µM] | annexin V-positive cells (MDA-MB-231 cells [6]) | inhibition at 100 µM [7] [%] | inhibition at 100 µM [8] [%] | inhibition at 100 µM [9] [%] | inhibition at 100 µM (Cryptococcus neoformans; ATCC66031, Cryptococcus neoformans ATCC 66031, 100 μM) [%] | inhibition at 100 µM (Cryptococcus neoformans; C. neoformans B4546, 100 μM) [%] | inhibition at 100 µM (Cryptococcus neoformans; C. neoformans JEC20, 100 μM) [%] | inhibition at 100 µM (Cryptococcus neoformans; C. neoformans VANC-R265, 100 μM) [%] | inhibition at 100 µM [10] [%] |
| --- | --- | --- | --- | --- | --- | --- | --- | --- | --- | --- | --- | --- | --- | --- |
| Clc1nc(Cl)c2[nH]cc(I)c2n1 [Compound 20, 7-iodo-2,4-dichloro pyrrolo[3,2-d]pyrimidine] | 5 | 30 | 4.9 | 0.92 | 0.93 | robust accumulation |  |  |  |  |  |  |  |  |
| Ic1c[nH]c2c(OCc3ccccc3)nc(OCc3ccccc3)nc12 [Compound 16, 7-iodo-2,4-bis-benzyloxy-5H-pyrrolo[3,2-d]pyrimidine] |  |  | 17 | 17 | 21 ± 2 |  |  |  |  |  |  |  |  |  |
| Clc1ncc2sccc2n1 [Compound 5] |  |  |  |  |  |  | < 43 | < 43 | < 43 | < 43 | < 43 | < 43 | < 43 | < 43 |
| c1ccc(COc2nc(OCc3ccccc3)c3[nH]ccc3n2)cc1 [Compound 15, 2,4-Bis-benzyloxy-5H-pyrrolo[3,2-d]pyrimidine] |  |  | 86 | 98 | 118 ± 8 |  |  |  |  |  |  |  |  |  |
